# In article PMC7435877 (Molecules, 2020):
# Where two headings read alike, the source gives them in different places.
# What was measured:
# LoVo = assay: In vitro antiproliferative activity, SRB assay, LoVo; format: cell-based, human; conditions: for IC50: 72 h, read-out: Antiproliferative activity IC50, LoVo
# A549 = assay: In vitro antiproliferative activity, SRB assay, A549; format: cell-based, human; conditions: for IC50: read-out: Antiproliferative activity IC50, A549
# MCF-7 = assay: In vitro antiproliferative activity, SRB assay, MCF-7; format: cell-based, human; conditions: for IC50: read-out: Antiproliferative activity IC50, MCF-7
# LoVo/DX = assay: In vitro antiproliferative activity, SRB assay, doxorubicin-resistant LoVo/DX; format: cell-based, human; conditions: for IC50: 72 h; for Resistance index (RI): RI = IC50 LoVo/DX / IC50 LoVo
# [1] = system: A549, MCF-7, LoVo, and LoVo/DX cells; assay: In vitro antiproliferative activity, SRB assay, summary over the tumor cell lines tested; format: cell-based; conditions: Homo sapiens, read-out: IC50, span over all tumor cell lines tested
# From the text: . Detailed information concerning antiproliferation assay can be found in Supplementary Materials. […]
# neutralized with 4M NaOH to pH~10 and extracted four times with EtOAc. The organic layers were combined, washed with brine, dried over Na2SO4, filtered off and evaporated under reduced pressure. The residue was purified using column flash chromatography (silica gel; DCM/MeOH, 20/1 v/v) and next lyophilized from dioxane to give the pure product 3 as a yellow solid with a yield of 73%.
# In vitro antiproliferative activity
# Cell lines and culturing conditions
# Four human cancer cell lines and one murine normal cell line were used to evaluate antiproliferative […]
# adenocarcinoma (MCF-7), human colon adenocarcinoma cell lines sensitive and resistant to doxorubicin (LoVo) and (LoVo/DX) respectively, and normal murine embryonic fibroblast cell line (BALB/3T3). The A549 cell line was purchased from the European Collection of Authenticated Cell Cultures (ECACC, Salisbury, UK). The MCF-7, LoVo and LoVo/DX cell lines was purchased from American Type Culture Collection (ATCC, Manassas, VA, USA). All the cell lines are maintained in the Institute of Immunology and Experimental Therapy (IIET), Wroclaw, Poland. […]
# BALB/3T3 = assay: In vitro antiproliferative activity, SRB assay, normal fibroblasts BALB/3T3; format: cell-based; conditions: normal murine embryonic fibroblast BALB/3T3, 72 h, mean ± SD
# [2] = Homo sapiens, LoVo/DX, read-out: Antiproliferative activity IC50, LoVo/DX, doxorubicin-resistant subline LoVo/DX, 72 h, SRB, mean ± SD
# [3] = read-out: Antiproliferative activity IC50, LoVo/DX, doxorubicin-resistant subline LoVo/DX, SRB, mean ± SD
Structure (SMILES),"IC50 (LoVo; Homo sapiens, LoVo) [nM]","IC50 (A549; Homo sapiens, A549, 72 h) [nM]","IC50 (MCF-7; Homo sapiens, MCF7, 72 h) [nM]",IC50 (LoVo/DX; [2]) [nM],Resistance index (RI) (LoVo/DX),other results
"CNc1ccc2c(cc1=O)C(NC(C)=O)CCc1cc(OC)c(OC)c(OC)c1-2 (stereo not shown) [Compound 2, 10-N-methylaminocolchicine]",1.2 ± 0.2,7.2 ± 1.3,,,,
CNc1ccc2c(cc1=O)[C@@H](NCCC#N)CCc1cc(OC)c(OC)c(OC)c1-2 [Compound 10],2 ± 0.6,9 ± 1,7.5 ± 0.7,51.5 ± 8.6,25.9,
CNc1ccc2c(cc1=O)[C@@H](NCc1ccccc1)CCc1cc(OC)c(OC)c(OC)c1-2 [Compound 13],0.9 ± 0.4,4.6 ± 1.8,7.3 ± 4.4,6 ± 0.8,7.0,
CCCCN[C@H]1CCc2cc(OC)c(OC)c(OC)c2-c2ccc(NC)c(=O)cc21 [Compound 6],7.8 ± 1.3,8.1 ± 2.6,8.7 ± 3.1,13.3 ± 5.8,1.7,
CNc1ccc2c(cc1=O)[C@@H](NCCO)CCc1cc(OC)c(OC)c(OC)c1-2 [Compound 9],5.6 ± 1.5,9.2 ± 2.2,10.1 ± 1.2,132 ± 37.5,23.6,
CNc1ccc2c(cc1=O)[C@@H](NCc1ccc(O)cc1)CCc1cc(OC)c(OC)c(OC)c1-2 [Compound 15],5.2 ± 0.5,8.9 ± 1.4,8.5 ± 0.9,72.2 ± 12.5,13.9,
CNc1ccc2c(cc1=O)[C@@H](NCc1ccncc1)CCc1cc(OC)c(OC)c(OC)c1-2 [Compound 16],5.2 ± 1.9,8.9 ± 1.7,9.6 ± 1.8,48.1 ± 14.5,9.3,
CNc1ccc2c(cc1=O)[C@@H](NCCCCl)CCc1cc(OC)c(OC)c(OC)c1-2 [Compound 11],1.3 ± 0.3,8.4 ± 2.2,7.6 ± 2.8,12.8 ± 3.3,10.0,
CCCN[C@H]1CCc2cc(OC)c(OC)c(OC)c2-c2ccc(NC)c(=O)cc21 [Compound 5],5 ± 0.1,10.5 ± 0.7,10.4 ± 0.6,17.2 ± 6.7,3.5,
CNc1ccc2c(cc1=O)[C@@H](NCCC(F)(F)F)CCc1cc(OC)c(OC)c(OC)c1-2 [Compound 12],2.3 ± 1.3,9.5 ± 0.2,9 ± 1.7,8.2 ± 0.6,3.6,
"CNc1ccc2c(cc1=O)[C@@H](N)CCc1cc(OC)c(OC)c(OC)c1-2 [Compound 3, N-deacetyl-10-methylamino-10-demethoxycolchicine]",7.4 ± 2.7,8.6 ± 3.9,9.8 ± 4.5,,,
"CNc1ccc2c(cc1=O)[C@@H](NCc1ccccc1Cl)CCc1cc(OC)c(OC)c(OC)c1-2 [Compound 14, N-(2-chlorobenzyl)-10-methylaminocolchicine]",0.1 ± 0.02,1.1 ± 0.7,0.7 ± 0.4,1.6 ± 1,,"Selectivity index (SI), MCF-7 (MCF-7; SI = IC50 BALB/3T3 / IC50 MCF-7): 6.1; Selectivity index (SI), LoVo/DX (LoVo/DX; SI = IC50 BALB/3T3 / IC50 LoVo/DX): 2.8; Potency relative to unmodified colchicine 1, LoVo/DX (LoVo/DX; times more potent than 1 towards LoVo/DX): approx. 440 times; Selectivity index (SI), A549 (A549; SI = IC50 BALB/3T3 / IC50 A549): 4.1; IC50 [1]: 0.1 to 1.6 nM"
CCCCCCCCCCN[C@H]1CCc2cc(OC)c(OC)c(OC)c2-c2ccc(NC)c(=O)cc21 [Compound 7],46.6 ± 15.5,88.4 ± 3.2,75.2 ± 10.8,99.5 ± 35.5,2.1,
"N.N.[Cl][Pt][Cl] [Cisplatin, cisplatin, reference compound]",,,,,0.9,"IC50 (LoVo; human colon adenocarcinoma LoVo, SRB, mean ± SD): 5460 ± 1410 nM; IC50 (MCF-7; human breast adenocarcinoma MCF-7, 72 h, SRB, mean ± SD): 5810 ± 2610 nM; IC50 (LoVo/DX; doxorubicin-resistant subline LoVo/DX, SRB, mean ± SD, read-out: Antiproliferative activity IC50, LoVo/DX): 5010 ± 1560 nM; IC50 (A549; human lung adenocarcinoma A549, 72 h, SRB, mean ± SD): 4920 ± 1850 nM; IC50 (BALB/3T3): 3970 ± 995 nM"
CNc1ccc2c(cc1=O)[C@@H](NCC(C)C)CCc1cc(OC)c(OC)c(OC)c1-2 [Compound 8],7.8 ± 1,9.6 ± 1.3,9.7 ± 1.5,≤ 10,1.1,IC50 (LoVo/DX; [3]): 8.5 ± 1.1 nM
CCN[C@H]1CCc2cc(OC)c(OC)c(OC)c2-c2ccc(NC)c(=O)cc21 [Compound 4],7.3 ± 2.5,9.4 ± 3.2,8.7 ± 3.3,62 ± 7.5,8.5,
CNc1ccc2c(cc1=O)[C@@H](NCc1cccs1)CCc1cc(OC)c(OC)c(OC)c1-2 [Compound 17],0.9 ± 0.3,9.4 ± 0.5,9.3 ± 0.6,≤ 10,8.9,"Selectivity index (SI), LoVo (LoVo; SI = IC50 BALB/3T3 / IC50 LoVo): > 3; IC50 (LoVo/DX; [3]): 7.9 ± 1 nM"
